Test systems include SNB-19; 786-0; NCI-H226; SK-MEL-5; MDA-MB-435; Malme-3M; HL-60; DU-145; TK-10; NCI-H460; HCC 2998; LOX IMVI; OVCAR-3; OVCAR-5; Hs-578T; SNB-75; SF-268; SF-539; HT-29.
Holding throughout (assay): NCI-60 cell line screen, 48 h

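Where inhibition never reached the appropriate level, the endpoint shown equals the highest concentration tested. Otherwise, values were interpolated linearly from a five-concentration, 48-hour dose response in 96-well plates. GI50: concentration for 50% inhibition of growth.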 The source made the active and inactive calls. Cut-off read from the data, not from the text of the source: active = GI50 up to about 1.1 µM and inactive = higher. Where only a bound is given, the exact number is not on record here.

The source of these data is ChEMBL document CHEMBL1201862, “PubChem BioAssay data set” (2004).

With `CC1=CC[C@@]2(C)CC[C@](O)(C(C)C)C2C(OC(=O)c2ccccc2)C1` (some centres not stated), the GI50 in the test with SNB-19 is 20.7 µM (inactive); with 786-0, 18.5 µM (inactive); in the test on NCI-H226, 23.8 µM (inactive); in the test with SK-MEL-5, 18.3 µM (inactive); with MDA-MB-435, 36.1 µM (inactive); in the test with Malme-3M, 21 µM (inactive). Further, the GI50 in the test on HL-60 was 28.9 µM (inactive); in the test on DU-145, 18.1 µM (inactive); in the test on TK-10 it was 18.3 µM (inactive); with NCI-H460, 21.6 µM (inactive); in the test with HCC 2998, 11.8 µM (inactive); in the test on LOX IMVI, 19.4 µM (inactive). Moreover, the GI50 was 17.5 µM (inactive) in the test with OVCAR-3; 16 µM (inactive) in the test on OVCAR-5; 21.2 µM (inactive) in the test with Hs-578T; 17.5 µM (inactive) in the test with SNB-75; 23.2 µM (inactive) in the test on SF-268; 19.8 µM (inactive) in the test on SF-539. The GI50 in the test with HT-29 is 16.7 µM (inactive).

As for `CCOC(=O)c1cnc(-n2[nH]c(C)c(CCO)c2=O)[nH]c1=O`, the GI50 in the test on SNB-19, with 786-0, in the test on NCI-H226, in the test with SK-MEL-5, in the test on MDA-MB-435 and with Malme-3M was > 100 µM (inactive) throughout. For the same compound, the GI50 in the test on HL-60, with DU-145, in the test with TK-10, in the test with NCI-H460, with HCC 2998 and in the test on LOX IMVI was > 100 µM (inactive) throughout. The GI50 was > 100 µM (inactive) with OVCAR-3; > 100 µM (inactive) in the test with OVCAR-5; > 100 µM (inactive) in the test on Hs-578T; 88.3 µM (inactive) with SNB-75; > 100 µM (inactive) in the test on SF-268; > 100 µM (inactive) in the test on SF-539. In addition, the GI50 in the test on HT-29 was > 100 µM (inactive).

On to `CCN(CC)C1Oc2cc3c(cc2C(c2cccc(OC)c2O)C1C)OCO3` (configuration not stated), for which the GI50 was 3.76 µM (inactive) in the test on SNB-19; 9.79 µM (inactive) in the test with 786-0; 3.44 µM (inactive) in the test on NCI-H226; 2.97 µM (inactive) in the test with SK-MEL-5; 1.74 µM (inactive) in the test with MDA-MB-435; 3.94 µM (inactive) in the test with Malme-3M. In addition, the GI50 in the test with HL-60 was 2.99 µM (inactive); with DU-145, 5.35 µM (inactive); in the test on TK-10, 16.4 µM (inactive); with NCI-H460, 4.24 µM (inactive); in the test on HCC 2998, 12.4 µM (inactive); with LOX IMVI it was 4.31 µM (inactive). Also, the GI50 in the test with OVCAR-3 was 1.94 µM (inactive); in the test with OVCAR-5, 13.8 µM (inactive); with Hs-578T it was 2.51 µM (inactive); in the test on SNB-75 it was 2.81 µM (inactive); with SF-268, 6.62 µM (inactive); in the test with SF-539 it was 2.54 µM (inactive). Also, the GI50 in the test on HT-29 is 4.16 µM (inactive).

Regarding `CC(C)C(C/C=C1/CC(CO)(COC(=O)C(C)(C)C)OC1=O)C(C)C` (configuration not stated), the GI50 in the test with SNB-19 is 12.9 µM (inactive); in the test on 786-0 it was 3.23 µM (inactive); with NCI-H226, 7.57 µM (inactive); in the test on SK-MEL-5 it was 4.52 µM (inactive); with MDA-MB-435, 8.59 µM (inactive); with Malme-3M it was 3.62 µM (inactive). The GI50 is 0.105 µM (active) in the test with HL-60; 11.1 µM (inactive) with DU-145; 3.72 µM (inactive) with TK-10; 7.76 µM (inactive) in the test with NCI-H460; 3.1 µM (inactive) with HCC 2998; 12.3 µM (inactive) with LOX IMVI. Besides, the GI50 in the test with OVCAR-3 is 15.6 µM (inactive); in the test with OVCAR-5, 11.6 µM (inactive); in the test with Hs-578T, 0.735 µM (active); in the test on SNB-75, 5.45 µM (inactive); with SF-268, 10.8 µM (inactive); in the test with SF-539 it was 0.598 µM (active). For the same compound, in the test on HT-29, the GI50 is 16.7 µM (inactive).

As for `Cc1cc2nc(CC(C(F)(F)F)C(F)(F)F)oc2cc1C`, the GI50 in the test on SNB-19 is 5.09 µM (inactive); in the test on 786-0, 0.474 µM (active); with NCI-H226, 1.88 µM (inactive); with SK-MEL-5, 4.32 µM (inactive); in the test on MDA-MB-435, 1.96 µM (inactive); with Malme-3M it was 3.34 µM (inactive). The GI50 in the test with HL-60 was 0.968 µM (active); in the test on DU-145, 4.36 µM (inactive); in the test on TK-10 it was 5.21 µM (inactive); in the test with NCI-H460, 3.77 µM (inactive); in the test with HCC 2998 it was 3.56 µM (inactive); with LOX IMVI, 0.209 µM (active). Moreover, the GI50 is 2.65 µM (inactive) in the test with OVCAR-3; 7.41 µM (inactive) with OVCAR-5; 1.83 µM (inactive) with Hs-578T; 1.61 µM (inactive) with SNB-75; 2.49 µM (inactive) in the test on SF-268; 2.73 µM (inactive) with SF-539. Besides, in the test on HT-29, the GI50 is 0.973 µM (active).

Take `CCCCc1cc2c(C)cc(=O)oc2c(O)c1O`: the GI50 was 37.9 µM (inactive) in the test on SNB-19; 33.9 µM (inactive) in the test on 786-0; 23.9 µM (inactive) in the test on NCI-H226; 20.7 µM (inactive) with SK-MEL-5; 30.6 µM (inactive) in the test with MDA-MB-435; 27.8 µM (inactive) in the test on Malme-3M. The GI50 with HL-60 was 18.1 µM (inactive); in the test on DU-145, 32.2 µM (inactive); with TK-10, 85.9 µM (inactive); with NCI-H460, 22.6 µM (inactive); in the test on HCC 2998, 3.15 µM (inactive); with LOX IMVI it was 20.5 µM (inactive). The GI50 in the test on OVCAR-3 was 29.1 µM (inactive); in the test with OVCAR-5 it was 69.7 µM (inactive); with Hs-578T, 22.9 µM (inactive); with SNB-75, 27.1 µM (inactive); in the test with SF-268, 38.8 µM (inactive); in the test with SF-539 it was 21.8 µM (inactive). The GI50 in the test on HT-29 was 27.9 µM (inactive).

Regarding `Cc1ccc(C(=O)O)c(CC2Cc3c(C)cccc3C2=O)c1` (configuration not stated), the GI50 in the test with SNB-19, with 786-0, in the test with NCI-H226, with SK-MEL-5, in the test on MDA-MB-435 and in the test on Malme-3M was > 100 µM (inactive) in each case. Besides, the GI50 was > 100 µM (inactive) in the test on HL-60; > 100 µM (inactive) with DU-145; > 100 µM (inactive) in the test on TK-10; > 100 µM (inactive) in the test with NCI-H460; > 100 µM (inactive) in the test on HCC 2998; 90.4 µM (inactive) with LOX IMVI. The GI50 in the test with OVCAR-3, with OVCAR-5, with Hs-578T, in the test on SNB-75, in the test on SF-268 and in the test on SF-539 was > 100 µM (inactive) throughout. Also, the GI50 with HT-29 was > 100 µM (inactive).

As to `CCN(CC)C1Oc2cc3c(cc2C(c2cc(OC)c(O)c(OC)c2)C1C)OCO3` (configuration not stated), the GI50 with SNB-19 was 16.2 µM (inactive); with 786-0 it was 10.4 µM (inactive); in the test on NCI-H226, 10.8 µM (inactive); with SK-MEL-5, 3.63 µM (inactive); in the test on MDA-MB-435, 2.14 µM (inactive); with Malme-3M, 3.55 µM (inactive). For the same compound, the GI50 in the test with HL-60 is 2.69 µM (inactive); in the test with DU-145 it was 29.9 µM (inactive); with TK-10, 24.9 µM (inactive); in the test on NCI-H460, 6.18 µM (inactive); in the test on HCC 2998 it was 7.01 µM (inactive); in the test on LOX IMVI, 9.66 µM (inactive). Also, the GI50 in the test on OVCAR-3 was 7.21 µM (inactive); in the test on OVCAR-5 it was 14.2 µM (inactive); in the test with Hs-578T, 6.84 µM (inactive); with SNB-75, 3.48 µM (inactive); in the test on SF-268, 16.3 µM (inactive); with SF-539, 11.3 µM (inactive). The GI50 in the test on HT-29 is 7.31 µM (inactive).
